From PMC8566422, “Thermodynamics of semi-specific ligand recognition: the binding of dipeptides to the E.coli dipeptide binding protein DppA” (European Biophysics Journal, 2021) come the findings set out here.

Where a SMILES comes first, the peptide text is derived from it.

One may read the Kd as the concentration at which binding is half-saturated.

For the assay, the target named is T1, DppA (E. coli dipeptide binding protein) (Escherichia coli, UniProt P23847).
T1 sequence (P23847 29-535): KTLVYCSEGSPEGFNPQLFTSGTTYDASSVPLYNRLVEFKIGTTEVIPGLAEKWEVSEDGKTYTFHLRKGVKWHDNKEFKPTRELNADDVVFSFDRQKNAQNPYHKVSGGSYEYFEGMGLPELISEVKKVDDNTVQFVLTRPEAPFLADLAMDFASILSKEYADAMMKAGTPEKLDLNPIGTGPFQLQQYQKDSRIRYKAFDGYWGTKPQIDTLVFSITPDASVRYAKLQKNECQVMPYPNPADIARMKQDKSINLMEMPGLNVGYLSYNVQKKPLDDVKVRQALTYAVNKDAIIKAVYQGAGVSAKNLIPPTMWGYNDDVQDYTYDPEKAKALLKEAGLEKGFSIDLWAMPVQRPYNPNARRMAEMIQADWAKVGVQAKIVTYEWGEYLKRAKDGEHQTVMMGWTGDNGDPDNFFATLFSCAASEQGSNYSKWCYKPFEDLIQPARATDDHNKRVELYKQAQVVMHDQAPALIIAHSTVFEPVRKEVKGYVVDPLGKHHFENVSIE
Nature of the assay: isothermal titration calorimetry. From the text:
isothermal titration calorimetry on DppA (E. coli dipeptide binding protein)
In general terms: In ITC the heat of successive injections is recorded.

As to `C[C@H](N)C(=O)N[C@@H](C)C(=O)O` [AA, Alanine–Alanine (A–A)] (H-Ala-Ala-OH), the affinity, expressed as Kd, was 37 nM.
The same measure for `C[C@H](N)C(=O)N[C@@H](Cc1ccccc1)C(=O)O` [AF, Alanine–Phenylalanine (A–F)]: 357 nM.
